The source of these data is patent US5506147A, “Non-invasive evaluation of maldigestion and malaborption” (priority 1994, dated 1996).

Series [1] deals with chymotrypsin. The following applies: cited from earlier work.
In series [2] the test system is chymotrypsin. The experiment in a line: Bentiromide test with stable isotope PABA, serum PABA ratio by GC/MS (Pancreatic Ratio). The series is classed as in vivo, human. The protocol:
The abundance of PABA and PABA isotope of the type administered to the patient in the 0-time sample is determined and compared to the abundance of PABA (from cleavage of bentiromide) and isotope PABA in the second sample. After adjustment for differences in the abundance of the identical quantities of PABA isotope used for standardization placed in the assay, the value of PABA in the 0-time sample is subtracted from the abundance of the PABA in the second sample (a like correction is also applied to the PABA isotope of the type administered) and a ratio of natural PABA to PABA isotope of the type administered is then determined. Individuals with a ratio greater than 0.32 are considered normal, individuals with a ratio of 0.28-0.32 are considered indeterminate, individuals with a ratio of less than 0.28 are considered abnormal.
Pancreatic and small bowel function were simultaneously evaluated using a gas chromatographic mass spectrometric (GC/MS) method on serum samples. In this method, xylose absorption was quantitated using [^13 C]1 -xylose, a stable isotope of xylose. Absorption of p-aminobenzoic acid (PABA), released from bentiromide by the action of endogenous chymotrypsin, was compared to the absorption of stable isotope PABA (^13 C6), administered orally simultaneously with bentiromide. The ratio (Pancreatic Ratio) of bentiromide PABA to stable isotope PABA in 60-minute sera samples was determined and expressed as a fraction and quantitated relative to added 2,6[^2 H]2 -PABA.
A person presented with diarrhea and hyperthyroidism and was also noted to have significant steatorrhea (63 g fat/24 hours). The patient was further evaluated with standard serum D-xylose testing, which was abnormal (13 mg/dl, nl 20-40). […] The patient then was given the above GC/MS test. A 0-time 10 ml blood sample was taken; 6.7 mg of bentiromide was administered along with 2.0 mg of stable isotope PABA and 5 g D-xylose, and 8 fl. oz of Resource. Sixty minutes later, 10 ml of blood was drawn. The sera after clotting was collected and the PABA, [^13 C]6 -PABA and xylose were purified and assayed by GC/MS.
At 0-time, a blood sample was taken from all patients in the amount of 10 ml, yielding 4-6 ml of serum, an aliquot of which was analyzed by GC/MS for PABA content.
Bentiromide in the amount of 6.7 mg and stable isotope PABA ([^13 C]6 -PABA) in the amount of 2 mg was administered to normal patients and patients with various pancreatic injuries after Internal Review Board approval. After an overnight fast (nothing by mouth after midnight except water or coffee with cream), a 0-time blood sample was drawn. The patients then drank 8 oz. of Resource followed immediately (within less than five minutes) by the test solution comprising 6.7 mg bentiromide, 2 mg stable isotope PABA, and 5 grams of D-xylose dissolved in 30 cc (1 oz.) of water. Sixty minutes later, 10 mls of blood were drawn and the subjects dismissed.
Serum collected one hour after the test meal was analyzed by GC/MS for the ratio of natural PABA to stable isotope PABA. The simultaneous administration of stable isotope PABA with bentiromide corrects for variations in gastric emptying, intestinal absorption, renal function and interfering substances in serum.
Bentiromide and stable isotope PABA were administered as set forth in Example 2 to four groups of patients designated A, B, C, and D on the X axis of FIG. 1. The ratio of labelled (i.e. stable isotope PABA) to bentiromide PABA in sera at 60 minutes is shown on the Y axis.
Several types of columns are used in this analysis and these include a strong anion exchange column (SAX), a strong cation exchange column (SCX), and a C18 column. The SAX and SCX columns are prepared in disposable plastic columns containing 50 mg of each resin. Prior to use, the column is prepared by a column volume of methanol followed by four washings with four column volumes of water. […]

A short description of the next series: clinical. Set-up: species or system human. Conditions: in vivo. From the text: Xylose is purified for detection by GC/MS by the process shown in Example 7. The purification process involves rapid deproteination and two-hour derivatization. The analysis involves the examination of one specific ion (M/Z 417) of one specific anomeric peak. Because of natural anomers and possibly incomplete derivatization of carbohydrates, xylose may show several peaks on GC/MS. It is necessary to use a peak providing a linear assay. In the present assay, using a ten-meter column, xylose elutes at 6.6 minutes when the temperature is ramped from 80°-300° C. using helium gas at a head pressure of 50 psi. A second smaller peak elutes at 6.7 minutes. […]
The xylose is also measured in the second fluid sample by GC/MS. […] A value less than or equal to about 2.5 mg/dl is read as abnormal.
Pancreatic and small bowel function were simultaneously evaluated using a gas chromatographic mass spectrometric (GC/MS) method on serum samples. In this method, xylose absorption was quantitated using [^13 C]1 -xylose, a stable isotope of xylose. […] The ratio (Pancreatic Ratio) of bentiromide PABA to stable isotope PABA in 60-minute sera samples was determined and expressed as a fraction and quantitated relative to added 2,6[^2 H]2 -PABA. […]
17. Place supernatant fluid into autosampler vial and examine by GC/MS using ^13 C1 -xylose as a standard for quantitation The derivatized xylose has four peaks. […]

The conditions of series [3]: human, in vivo, po. The protocol: The serum xylose test is one of the best non-invasive methods for diagnosing intestinal malabsorption. In this test, D-xylose, a five-carbon sugar not naturally present in the body or in foodstuffs, is given orally and an estimation of the increase in serum xylose content is carried out through colorimetric determination (CD) of non-glucose reducing sugars in serum. However, the test is occasionally misleading by giving both false positive and false negative results. Older xylose tests measured xylose in the urine. Problems with this test include the fact that the Roe and Rice method of D-xylose analysis is non-specific and cross-reacts partially with glucose. […] Furthermore, the test critically depends on complete emptying of the urinary bladder at five hours and on intact renal function.
An isotope dilution assay was developed for serum xylose using GC/MS to compare to the CD of serum xylose from a commercial diagnostic company to see if variations in the analysis itself may be a contributing cause to the misleading clinical results. Since GC/MS analysis relies on both column separation and mass identification, it is more specific for xylose determination than CD.

The mark [4] stands for this setting: Alcoholic Pancreatitis (n = 4), serum one hour.
Setting [5] is: Cystic Fibrosis (n = 16), serum one hour.
Where [6] appears, read: Other Pancreatitis (n = 4), serum one hour.

Where “and” joins values, the source holds several entries; their conditions need not be identical. Equal values may be shown once.

In the case of `O=C(O)c1ccc(NC(=O)[C@H](Cc2ccc(O)cc2)NC(=O)c2ccccc2)cc1` [Bentiromide, N-benzoyl-L-tyrosyl-p-aminobenzoic acid], the “plasma bentiromide test result in cystic fibrosis patients” value in the series on chymotrypsin [1] was “abnormally low”. The “Ratio in % of Natural PABA to Stable Isotope PABA” value is 5 ± 6% in the series with chymotrypsin [2] (setting [4]); 4 ± 3% in the series on chymotrypsin [2] (setting [5]); 80 ± 20% with chymotrypsin [2] (Normals (n = 38), serum one hour after 6.7 mg bentiromide and 2 mg [^13 C]6 -PABA); 7 ± 6% in the series on chymotrypsin [2] (setting [6]); 2% and 37% in the series with chymotrypsin [2] (Partial Pancreatectomy (n = 2), individual values, serum one hour). For the same compound, the “Ratio in % of Natural PABA to Stable Isotope PABA, range” value is listed as 0-14% in the series on chymotrypsin [2] (setting [4]); 0-11% in the series on chymotrypsin [2] (setting [5]); 34-200% with chymotrypsin [2] (Normals (n = 38), serum one hour); 1-16% in the series on chymotrypsin [2] (setting [6]). Besides, the “PABA ratio in sera at 60 minutes, FIG. 1” value in the series on chymotrypsin [2] (Group B, cystic fibrosis) is given as less than 0.32. For the same compound, the “PABA ratio in sera at 60 minutes, FIG. 1 (in words)” value in the series with chymotrypsin [2] (Group C, failed to improve on pancreatic supplementary enzymes) is “this entire Group C is normal”. Further, the “ratio of natural PABA to PABA isotope” value in the series on chymotrypsin [2] (patients with documented pancreatic insufficiency, 60-minute samples) is on record as not above 0.18. For the same compound, the “Pancreatic Ratio” value with chymotrypsin [2] (person with steatorrhea, sixty minutes, 6.7 mg bentiromide, 2.0 mg stable isotope PABA, nl greater than 0.32) was 0.06.

`[2H]c1c([2H])c(C(=O)O)c([2H])c([2H])c1N` [Example 12, 4-aminobenzoic-2,3,5,6-[^2 H]4]: the back exchange entry (boiling water) was “lack of reaction in boiling water”. Moreover, the decomposition result (hot dilute acid) is “extensive decomposition in hot dilute acid”.

Compound `O=C[C@H](O)[C@@H](O)[C@H](O)CO` [xylose, D-xylose] came in with a concentration at 1 h in “clinical” (human, po) of 150 µg/mL. Also, in “clinical”, the “xylose analysis, FIG. 4 (in words)” value is reported as “low”. Besides, in series [3], the “standard serum D-xylose testing” value amounted to 13 mg/dL and the “xylose content by CD, sera post xylose administration” value lay within 3 to 52 mg/dL.
